One compound from publication PMC12303383, “The heme-regulated inhibitor kinase Hri1 is activated in response to aminolevulinic acid deficiency in Schizosaccharomyces pombe” (PLOS Genetics, 2025) can be followed below.

The target in one assay is T1, Hri2 (Schizosaccharomyces pombe, UniProt Q9UTE5).
T1 construct: MBP-tagged wild-type Hri2 expressed in E. coli, dephosphorylated with lambda phosphatase
T1 sequence (Q9UTE5 1-639): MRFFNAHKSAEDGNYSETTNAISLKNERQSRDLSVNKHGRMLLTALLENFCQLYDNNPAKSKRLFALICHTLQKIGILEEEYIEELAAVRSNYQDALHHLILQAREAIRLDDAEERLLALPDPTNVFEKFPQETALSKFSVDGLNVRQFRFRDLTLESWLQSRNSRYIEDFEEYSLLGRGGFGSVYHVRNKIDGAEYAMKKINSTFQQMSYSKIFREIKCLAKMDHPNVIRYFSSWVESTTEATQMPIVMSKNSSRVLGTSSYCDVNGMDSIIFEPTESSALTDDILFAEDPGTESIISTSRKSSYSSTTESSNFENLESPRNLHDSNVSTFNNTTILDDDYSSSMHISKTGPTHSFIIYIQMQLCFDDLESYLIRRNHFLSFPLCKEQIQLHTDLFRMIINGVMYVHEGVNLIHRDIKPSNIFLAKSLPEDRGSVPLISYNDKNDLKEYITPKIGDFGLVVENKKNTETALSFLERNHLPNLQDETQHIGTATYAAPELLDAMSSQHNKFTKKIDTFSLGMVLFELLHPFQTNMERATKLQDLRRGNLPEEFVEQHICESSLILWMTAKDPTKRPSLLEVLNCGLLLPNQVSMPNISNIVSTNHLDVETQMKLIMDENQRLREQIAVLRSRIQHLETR
Kind of assay: differential absorbance spectral titration (Soret peak, […] nm) with purified protein. Type of assay: binding.

For assay [1], the target named is T2, Hri1 (heme-regulated inhibitor kinase 1) (Schizosaccharomyces pombe, UniProt O13889).
T2 construct: MBP-tagged wild-type Hri1 expressed in E. coli, dephosphorylated with lambda phosphatase
T2 sequence (O13889 1-704): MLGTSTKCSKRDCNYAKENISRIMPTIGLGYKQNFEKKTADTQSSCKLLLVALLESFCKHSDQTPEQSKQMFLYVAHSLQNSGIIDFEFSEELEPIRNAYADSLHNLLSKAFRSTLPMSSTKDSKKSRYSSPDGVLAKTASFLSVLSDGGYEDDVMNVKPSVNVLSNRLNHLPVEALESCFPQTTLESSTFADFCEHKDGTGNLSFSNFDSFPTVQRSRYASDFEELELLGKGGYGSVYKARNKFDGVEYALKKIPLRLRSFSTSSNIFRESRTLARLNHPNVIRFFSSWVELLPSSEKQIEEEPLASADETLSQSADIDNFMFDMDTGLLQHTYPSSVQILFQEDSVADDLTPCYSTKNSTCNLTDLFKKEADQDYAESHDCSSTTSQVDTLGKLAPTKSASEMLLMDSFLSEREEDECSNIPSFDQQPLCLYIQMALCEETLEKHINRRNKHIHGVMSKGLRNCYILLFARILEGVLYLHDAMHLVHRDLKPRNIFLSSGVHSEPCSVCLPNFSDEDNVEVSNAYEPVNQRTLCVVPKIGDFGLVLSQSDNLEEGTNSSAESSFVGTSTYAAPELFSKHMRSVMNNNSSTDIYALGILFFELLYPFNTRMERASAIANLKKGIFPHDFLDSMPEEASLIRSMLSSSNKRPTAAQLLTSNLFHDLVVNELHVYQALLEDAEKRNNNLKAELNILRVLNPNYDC
The description is as above. The format is binding.

Structures are written as SMILES.

Broadly, the Kd is a measure of binding affinity in units of concentration. `C=CC1=C(C)C2=Cc3c(C=C)c(C)c4[n]3[Fe]([Cl])[n]3c(c(C)c(CCC(=O)O)c3=CC3=NC(=C4)C(C)=C3CCC(=O)O)=CC1=N2` [hemin]: the dissociation constant (Kd) at Hri2 is 1050 nM; in assay [1], 110 nM.
